The values below come from patent publication US20200291018A1, “TAM KINASE INHIBITORS” (SYROS PHARMACEUTICALS, INC., priority 2017, published 2020).

SMILES strings stand for the structures. pIC50: −log10 of the molar value.

One experiment has as its target T1, FLT3 (Homo sapiens, UniProt P36888).
T1 sequence (P36888 27-993): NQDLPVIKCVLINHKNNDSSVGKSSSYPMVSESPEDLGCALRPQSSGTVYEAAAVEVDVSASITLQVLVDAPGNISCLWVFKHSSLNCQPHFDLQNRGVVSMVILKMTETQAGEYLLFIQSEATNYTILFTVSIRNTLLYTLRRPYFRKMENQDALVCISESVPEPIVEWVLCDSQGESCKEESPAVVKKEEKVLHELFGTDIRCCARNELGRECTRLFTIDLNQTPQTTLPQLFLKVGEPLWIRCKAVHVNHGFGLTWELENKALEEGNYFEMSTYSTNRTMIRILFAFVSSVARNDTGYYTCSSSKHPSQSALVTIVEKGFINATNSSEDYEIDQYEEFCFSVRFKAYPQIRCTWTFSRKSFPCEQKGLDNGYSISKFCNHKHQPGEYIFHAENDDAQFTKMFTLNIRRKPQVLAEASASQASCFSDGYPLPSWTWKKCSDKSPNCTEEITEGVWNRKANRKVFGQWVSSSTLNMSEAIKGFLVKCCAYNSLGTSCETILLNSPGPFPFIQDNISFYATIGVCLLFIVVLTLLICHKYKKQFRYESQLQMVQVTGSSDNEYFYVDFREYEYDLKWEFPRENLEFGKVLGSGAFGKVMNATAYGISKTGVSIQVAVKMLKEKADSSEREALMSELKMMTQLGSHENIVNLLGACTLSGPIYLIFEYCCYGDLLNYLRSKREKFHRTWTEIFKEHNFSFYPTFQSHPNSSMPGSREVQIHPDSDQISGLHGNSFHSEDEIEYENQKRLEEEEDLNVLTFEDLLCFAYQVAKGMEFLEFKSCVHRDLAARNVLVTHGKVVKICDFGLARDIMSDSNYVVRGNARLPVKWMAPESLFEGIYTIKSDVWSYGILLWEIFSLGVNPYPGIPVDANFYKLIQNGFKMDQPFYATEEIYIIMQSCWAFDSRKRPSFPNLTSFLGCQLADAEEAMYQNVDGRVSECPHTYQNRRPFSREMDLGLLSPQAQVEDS
As to the kind of experiment: TR-FRET kinase activity assay, FLT3. The format is biochemical. The settings on record: ATP at Km, 60 minutes. As to the method: (§1) IC50 values for compound inhibition of AXL, FLT3, MERTK and TYRO3 activity were determined using a TR-FRET activity assay. A peptide substrate with a fluorescent label is phosphorylated on a tyrosine by each enzyme, where the now phosphorylated product is bound by a Europium-labeled antibody specific to that phosphorylation site. The proximity between the antibody and the substrate gives a signal known as TR-FRET. As the enzyme is inhibited by compound, less phosphorylated peptide product is made, causing a decrease in overall signal.
(§2) Activity assays were performed in a 384-well, small volume, black microplates in an active enzyme volume of 10 uL and final developed volume of 20 uL. Final assay conditions are 50 mM HEPES pH 7.5, 10 mM MgCl2, 1 mM EGTA, 0.01% Brij 35 and 1 mM DTT, all at RT. Enzyme, substrate-labeled peptide and compound are mixed, and then the reaction is initiated with the addition of ATP at Km concentration for each enzyme. The reaction is allowed to run 60 minutes and then quenched with a 12.5 mM EDTA (ethylenediamine tetraacetic acid) solution. The plate is then developed with the addition of Europium-labeled antibody for a final volume of 20 uL and is then incubated for 30 minutes in darkness. Plates are read in a PHERASTAR® plate reader. Data are analyzed in GraphPad PRISM.

The next experiment concerns the target T2, AXL (Homo sapiens, UniProt P30530).
T2 sequence (P30530 26-894): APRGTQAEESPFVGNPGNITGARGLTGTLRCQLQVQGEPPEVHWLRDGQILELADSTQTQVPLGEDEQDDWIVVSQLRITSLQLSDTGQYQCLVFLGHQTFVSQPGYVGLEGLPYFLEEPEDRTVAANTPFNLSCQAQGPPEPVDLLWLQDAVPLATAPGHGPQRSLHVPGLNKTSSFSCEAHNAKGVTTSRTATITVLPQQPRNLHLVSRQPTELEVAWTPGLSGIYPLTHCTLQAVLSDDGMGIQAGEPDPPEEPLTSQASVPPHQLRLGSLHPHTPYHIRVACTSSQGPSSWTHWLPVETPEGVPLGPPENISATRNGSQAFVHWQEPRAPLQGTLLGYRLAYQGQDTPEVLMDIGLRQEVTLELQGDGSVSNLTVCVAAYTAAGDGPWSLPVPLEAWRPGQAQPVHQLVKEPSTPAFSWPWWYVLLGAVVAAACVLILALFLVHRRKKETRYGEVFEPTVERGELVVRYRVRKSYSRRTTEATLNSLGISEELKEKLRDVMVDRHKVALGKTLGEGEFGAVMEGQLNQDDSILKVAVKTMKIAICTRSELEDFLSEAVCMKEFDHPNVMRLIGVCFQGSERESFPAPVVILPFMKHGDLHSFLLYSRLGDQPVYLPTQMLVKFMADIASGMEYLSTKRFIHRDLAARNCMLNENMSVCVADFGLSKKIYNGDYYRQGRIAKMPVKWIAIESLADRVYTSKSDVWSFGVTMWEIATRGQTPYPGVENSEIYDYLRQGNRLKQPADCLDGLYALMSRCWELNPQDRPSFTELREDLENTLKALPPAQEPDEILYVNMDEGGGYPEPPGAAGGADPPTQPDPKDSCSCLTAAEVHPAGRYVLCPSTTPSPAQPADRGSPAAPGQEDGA
As to the kind of experiment: TR-FRET kinase activity assay, AXL. The class given is biochemical. The settings on record: ATP at Km, 60 minutes. The protocol:
as §1, §2

In the case of `CC[C@H](C)Nc1ncc2c(OC3CC(C)(C)N(C)C(C)(C)C3)ncc([C@H]3CC[C@H](O)CC3)c2n1` [Compound 227], the values for the pIC50 at FLT3 and on AXL were 6.00 to 7.00 and no less than 7.00, respectively.
The matching figures for `CCC(CC)Nc1ncc2c(OC3CCNCC3)ncc([C@H]3CC[C@H](O)CC3)c2n1` [Compound 228]: 5.00 to 6.00 and 6.00 to 7.00.
Regarding `CC[C@H](C)Nc1ncc2c(O[C@H]3CC[C@H](O)CC3)ncc([C@H]3CC[C@H](O)CC3)c2n1` [Compound 229], the negative-log IC50 (pIC50) against FLT3 and on AXL was 6.00 to 7.00 in each case.
Regarding `CC[C@H](C)Nc1ncc2c(Cl)ncc([C@H]3CC[C@H](O)CC3)c2n1` [Compound 230], the negative-log IC50 (pIC50) on FLT3 was 5.00 to 6.00; against AXL, 6.00 to 7.00.
As for `CC[C@H](C)NC1=NC2C([C@H]3CC[C@H](O)CC3)=CN(C(C)C)C(=O)C2C=N1` (some centres unmarked) [Compound 231], the values for the pIC50 at FLT3 and against AXL were 5.00 to 6.00 and 6.00 to 7.00, respectively.
`O[C@H]1CC[C@H](c2cnc(OC3CCNCC3)c3cnc(N[C@@H]4CCCOC4)nc32)CC1` [Compound 232]: the negative logarithm of the IC50 (pIC50) on FLT3 and at AXL was 6.00 to 7.00 throughout.
Consider `CC[C@H](C)Nc1ncc2c(OC3CCN(S(C)(=O)=O)CC3)ncc([C@H]3CC[C@H](O)CC3)c2n1` [Compound 233], for which the figures for the negative-log IC50 (pIC50) at FLT3 and on AXL were 6.00 to 7.00 and no less than 7.00, respectively.
The matching figures for `CC[C@H](C)Nc1ncc2c(=O)n(C3CCN(S(C)(=O)=O)CC3)cc([C@H]3CC[C@H](O)CC3)c2n1` [Compound 234]: 5.00 to 6.00 and 6.00 to 7.00.
For the compound `CCOc1ncc([C@H]2CC[C@H](O)CC2)c2nc(N[C@@H](C)CC)ncc12` [Compound 235], the pIC50 against FLT3 was 6.00 to 7.00; against AXL, no less than 7.00.
The matching figures for `CCOc1ncc(CC2CCNCC2)c2nc(N[C@@H](C)CC)ncc12` [Compound 236]: 6.00 to 7.00 and 6.00 to 7.00.
The matching figures for `CC[C@H](C)Nc1ncc2c(OC3C[C@H]4CC[C@@H](C3)O4)ncc([C@H]3CC[C@H](O)CC3)c2n1` (some centres unmarked) [Compound 237]: 5.00 to 6.00 and 5.00 to 6.00.
Take `CC[C@H](C)Nc1ncc2c(NC34CCC(O)(CC3)CC4)ncc([C@H]3CC[C@H](O)CC3)c2n1` [Compound 238]: the pIC50 at FLT3 and against AXL was 6.00 to 7.00 each time.
With `CC[C@H](C)Nc1ncc2c(OC3CCN(C)CC3)ncc([C@H]3CC[C@H](O)CC3)c2n1` [Compound 239], the pIC50 is 5.00 to 6.00 against FLT3 and 6.00 to 7.00 on AXL.
The matching figures for `CC[C@H](C)Nc1ncc2c(C3CCN(C)CC3)ncc([C@H]3CC[C@H](O)CC3)c2n1` [Compound 240]: 5.00 to 6.00 and 5.00 to 6.00.
Take `CC[C@H](C)Nc1ncc2c(OC(CO)CO)ncc([C@H]3CC[C@H](O)CC3)c2n1` [Compound 241]: the pIC50 against FLT3 and against AXL was 5.00 to 6.00 in each case.
Consider `COC[C@H](C)Nc1ncc2c(OC3CCOCC3)ncc(C3=CCC4(CC3)OCCO4)c2n1` [Compound 242], for which the pIC50 against FLT3 and on AXL was 5.00 to 6.00 each time.
Turning to `COC[C@H](C)Nc1ncc2c(OC3CCOCC3)ncc(C3CCC4(CC3)OCCO4)c2n1` [Compound 243], the pIC50 against FLT3 and against AXL was 5.00 to 6.00 throughout.
As to `CCc1ncc([C@H]2CC[C@H](O)CC2)c2nc(N[C@@H](C)CC)ncc12` [Compound 244], the figures for the pIC50 on FLT3 and against AXL were 5.00 to 6.00 and 6.00 to 7.00, respectively.
Take `CC[C@H](C)Nc1ncc2c(OCC(F)(F)F)ncc([C@H]3CC[C@H](O)CC3)c2n1` [Compound 245]: the negative-log IC50 (pIC50) at FLT3 and on AXL was 6.00 to 7.00 throughout.
On to `CC[C@H](C)Nc1ncc2c(OC3CC(C)(C)NC(C)(C)C3)ncc([C@H]3CC[C@H](O)CC3)c2n1` [Compound 246], for which the pIC50 was 5.00 to 6.00 on FLT3 and 6.00 to 7.00 against AXL.
The corresponding values for `CC[C@H](C)Nc1ncc2c(OC3C[C@@H](C)O[C@@H](C)C3)ncc([C@H]3CC[C@H](O)CC3)c2n1` (some centres unmarked) [Compound 247] are 5.00 to 6.00 and 5.00 to 6.00.
The corresponding values for `CC[C@H](C)Nc1ncc2c(=O)n(CC34CCC(N)(CC3)CC4)cc([C@H]3CC[C@H](O)CC3)c2n1` [Compound 251] are 5.00 to 6.00 and 6.00 to 7.00.
Consider `CCOc1ncc(CC2CCN(C)CC2)c2nc(N[C@@H](C)CC)ncc12` [Compound 253], for which the pIC50 against FLT3 and at AXL was 5.00 to 6.00 throughout.
Take `CCOc1ncc(CC2CCN(C(=O)OC(C)(C)C)CC2)c2nc(N[C@@H](C)CC)ncc12` [Compound 254]: the negative-log IC50 (pIC50) at FLT3 and at AXL was 5.00 to 6.00 each time.
For the compound `CC[C@H](C)Nc1ncc2c(C)ncc([C@H]3CC[C@H](O)CC3)c2n1` [Compound 255], the pIC50 against FLT3 was 5.00 to 6.00; at AXL, no less than 7.00.
The matching figures for `CC[C@H](C)Nc1ncc2c(OCC34CCC(O)(CC3)CC4)ncc([C@H]3CC[C@H](O)CC3)c2n1` [Compound 256]: 5.00 to 6.00 and 5.00 to 6.00.
The matching figures for `CC[C@H](C)Nc1ncc2c(=O)n(CC34CCC(O)(CC3)CC4)cc([C@H]3CC[C@H](O)CC3)c2n1` [Compound 257]: 5.00 to 6.00 and no less than 7.00.
Turning to `COC[C@H](C)Nc1ncc2c(OC3CC(C)(C)N(C)C(C)(C)C3)ncc([C@H]3CC[C@H](O)CC3)c2n1` [Compound 259], the pIC50 is 5.00 to 6.00 against FLT3 and no less than 7.00 against AXL.
The matching figures for `COC[C@H](C)Nc1ncc2c(O[C@H]3CC[C@H](O)CC3)ncc([C@H]3CC[C@H](O)CC3)c2n1` [Compound 260]: 5.00 to 6.00 and 6.00 to 7.00.
With `CC[C@H](C)Nc1ncc2c(O[C@H]3CC[C@H](C(C)(C)O)CC3)ncc([C@H]3CC[C@H](O)CC3)c2n1` [Compound 261], the pIC50 on FLT3 and against AXL was 6.00 to 7.00 each time.
As to `O[C@H]1CC[C@H](c2cnc(OC3CCNCC3)c3cnc(Nc4ccccc4F)nc32)CC1` [Compound 262], the pIC50 against FLT3 and on AXL was 6.00 to 7.00 throughout.
In the case of `CC[C@H](C)Nc1ncc2c(=O)n(C[C@@H]3COCCN3C)cc([C@H]3CC[C@H](O)CC3)c2n1` [Compound 263], the pIC50 is 5.00 to 6.00 against FLT3 and 6.00 to 7.00 at AXL.
The corresponding values for `CC[C@H](C)Nc1ncc2c(=O)n(CC34CCC(N(C)C)(CC3)CC4)cc([C@H]3CC[C@H](O)CC3)c2n1` [Compound 264] are 5.00 to 6.00 and no less than 7.00.
For `CC[C@H](C)Nc1ncc2c(=O)n(C[C@H]3COCCN3C)cc([C@H]3CC[C@H](O)CC3)c2n1` [Compound 265], the pIC50 against FLT3 and at AXL was 5.00 to 6.00 in each case.
